Laboratory results reported in publication PMC7848139, “Novel Hybrid CHC from β-carboline and N-Hydroxyacrylamide Overcomes Drug-Resistant Hepatocellular Carcinoma by Promoting Apoptosis, DNA Damage, and Cell Cycle Arrest” (Frontiers in Pharmacology, 2021).

Experiments:
[1] = system: Bel7402/5-FU xenografts; test: In vivo tumor growth inhibition, Bel7402/5-FU xenograft; design: species or system BALB/c nude mice; details: intraperitoneal daily, 21 days
Experimental: All animal experimental protocols were approved by the Animal Research and Care Committee of Nantong University. Female BALB/c nude mice at 5∼6 week-old were subcutaneously implanted with 1×10^6 Bel7402/5-FU cells. […] The body mass and tumor size of nude mice were surveyed every three days during the 21 days study. Tumor size (mm^3) of nude mice was determined using the formula: tumor size = ½ (Length×Width^2). Finally, these tumor-bearing mice were sacrificed, and their tumors were removed and weighed at the end of the 21 days.
Data (means ± SD) were from tumor volumes or weight of each group of mice (n = 6 per group). *p < 0.01 vs. control group.

[2] = biological target: T1, recombinant human HDAC8 (Homo sapiens, UniProt Q9BY41); test: HDAC fluorimetric assay, HDAC8; assay type: biochemical; details: mean ± SD of three experiments
T1 construct: purchased Enzo Life Sciences Inc
T1 sequence (Q9BY41 1-377): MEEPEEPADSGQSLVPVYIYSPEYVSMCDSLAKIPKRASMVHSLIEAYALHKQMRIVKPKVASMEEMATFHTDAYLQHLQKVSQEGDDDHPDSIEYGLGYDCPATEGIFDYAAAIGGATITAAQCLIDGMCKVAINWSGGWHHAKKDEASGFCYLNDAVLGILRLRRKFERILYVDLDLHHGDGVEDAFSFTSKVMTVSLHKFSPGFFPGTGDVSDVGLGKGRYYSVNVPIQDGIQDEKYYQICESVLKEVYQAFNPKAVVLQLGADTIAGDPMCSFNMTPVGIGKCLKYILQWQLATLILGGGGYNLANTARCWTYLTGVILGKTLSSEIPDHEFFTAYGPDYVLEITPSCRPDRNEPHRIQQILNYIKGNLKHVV
Experimental: The assay was conducted according to the HDAC1/3/6/8 assay kit (Enzo Life Sciences Inc.). Each different concentrations of evaluated compounds were, respectively, incubated with each HDAC1/3/6/8 at coupling of corresponding HDAC substrate (Boc-Lys (Ac)-AMC) at 37°C for 60 min. Then stopping the reaction under adding lysine developer.

[3] = system: HCT116; test: MTT antiproliferative assay, HCT116; assay type: cell-based; details: Homo sapiens, HCT-116, 72 h, mean ± SD of three experiments, read-out: In vitro antiproliferative activity (IC50) HCT116
Experimental: Briefly, appropriate cells (1 × 10^4 cells/mL) were placed into 96-well plates in 100 μL of DMEM medium overnight. Then adding 100 μL of evaluated compounds into individual well for 72 h while 0.1% DMSO aqueous solution was treated as the negative control. After incubation with 30 μl MTT (5 mg/mL) for 4 h in all well, and ELISA plate reader measured absorbance of each well at 570 nm. Then calculating cytotoxicity effect of evaluated compounds through the formula: Cell inhibitory percentage (%) = (1−OD of treatment group/OD of control) × 100%.

CN(C)c1ccc(-c2nc(C(=O)NCc3ccc(/C=C/C(=O)NO)cc3)cc3c2[nH]c2ccccc23)cc1 [CHC, (E)-N-(4-(3-(hydroxyamino)-3-oxoprop-1-en-1-yl)benzyl)-1-(4-dimethylaminophenyl)-9H-pyrido [3,4-b]indole-3-carboxamide]
decrease of tumor mass compared to saline group ([1]; 70 μmol/kg): 65 % (w/w) | tumor mass at end of treatment ([1]; 70 μmol/kg, n = 6, saline group 1.47 ± 0.21 g): 0.51 ± 0.08 g | body mass change vs vehicle group [1]: no significant statistical difference | xenograft hepatic tumor volume [1]: markedly diminished xenograft hepatic tumor volume | IC50 [2]: > 1 µM | IC50 [3]: 2.05 ± 0.19 µM
